Reference: PMC13128454, “Mutant p53 protein accumulation is selectively targetable by proximity-inducing drugs” (Nature Chemical Biology, 2025)
pIC50: −log10 of the molar value. Values joined by “and” are separate entries in the source; they are usually repeats but may differ in a detail not shown here. Equal values may be shown once.

Legend:
Format in all cases: cell-based
[1] = test system: Halo–p53-Y220C ΔTAD–mCherry 293T cells; test: 3-week culture with compound, mCherry^− fraction by FACS; details: 250 nM, 3 weeks
[2] = test system: 293T cells stably expressing Halo–p53-Y220C ΔTAD–mCherry versus parental 293T cells; test: crystal violet staining; details: 5 days
Method: The 293T cells were plated in six-well or 12-well plates at low density (~10% confluence) and treated with compound for the indicated duration. Cells were rinsed once with PBS and then stained with crystal violet (0.5% m/v) in 20% methanol–water for 10 min. Cells were washed with water five times and air-dried overnight.

[3] = test system: Halo–p53-R273H (FL)–mCherry 293T cells versus parental 293T cells; test: flow-cytometry growth competition; details: for normalized_mCherry_percentage: R273H, day 8, normalized to DMSO
Method in brief: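 Marker-positive and marker-negative cells mixed, plated at low density and treated with varying compound concentrations, passaged and retreated as needed. Fluorophore-positive versus negative fractions quantified by flow cytometry, gated on untreated mixtures.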

[4] = CellTiter-Glo cell viability; set-up: p5301_AUC_to_10uM / AUC_rezatapopt: scale not given here; viability, replicates (sheet 4G): unit not given here; details: human, MFE319 cells, No PMV6, read-out: viability, replicates (sheet 4G)
Method: (§1) Cells were plated in 384-well plates (typically 1,500 cells per well) with varying concentrations of compounds, with a total volume of 50 μl per well. CTG reagent was added (25 μl) to the solutions, mixed and read out using an EnVision 2105 multimode plate reader.

MFE319 cells = test: CellTiter-Glo cell viability; set-up: p5301_AUC_to_10uM / AUC_rezatapopt: scale not given here; viability, replicates (sheet 4G): unit not given here; details: for mean_norm (normalized viability): 4 day; for viability, replicates (sheet 4G): No PMV6
Method: as §1

[5] = test system: PLK1 targets (cyclin B1, phospho-PLK-binding motif) in Halo–p53-Y220C ΔTAD–mCherry 293T cells; test: western blot for PLK1 targets; details: 8.5 h, double thymidine block
Method: (§2) Cells were split into a 10-cm dish at low confluency (20%) and grown overnight. Cells were synchronized with double thymidine block. Cells were treated with thymidine (2 mM) overnight and released into fresh medium for 8.5 h and then retreated with thymidine (2 mM) overnight. Cells were split into a six-well plate and released into medium containing compound for 8.5 h. Cells were pelleted and protein lysates were created using RIPA buffer containing Halt phosphatase and protease inhibitor (Thermo Fisher, 78440). Lysates were clarified by centrifugation (21,000g for 15 min) and the supernatant was denatured in 1× Lamelli buffer containing DTT by heating at 95 °C for 5 min. The resulting protein was loaded onto a Tris–acetate gel, transferred onto a PVDF membrane and treated with primary antibodies: cyclin B1 (D5C10, Cell Signaling Technologies, 12231T; 1:1,000) and phospho-PLK-binding motif (D73F6, Cell Signaling Technologies, 5243T; 1:1,000). The membrane was stained with IRDye 800CW goat anti-rabbit IgG secondary antibody (Licor Biosciences; 1:20,000) and imaged on an Odyssey DLx.

[6] = test system: PLK1 targets (cyclin B1, phospho-PLK-binding motif) in parental 293T cells; test: western blot for PLK1 targets; details: 8.5 h, double thymidine block
Method: as §2

[7] = test system: PLK1 and p53-Y220C localization in cotransfected 293T cells; test: colocalization assay, live-cell imaging; details: nonmitotic cells
Method: The 293T cells were seeded in six-well plates and cotransfected with Halo–p53-Y220C ΔTAD–mCherry and mEGFP–PLK1–SmBiT (1:1). After 1 day, the cells were passaged into 96-well plates in FluoroBrite DMEM for microscopy. The cells were imaged with the Opera Phenix Plus high-content screening system (PerkinElmer) before compound treatment and as a time series following compound treatment.

[8] = p53-01 Concentration (µM) 0.0390625
[9] = p53-01 Concentration (µM) 0.078125
[10] = p53-01 Concentration (µM) 0.625

CC[C@@H]1C(=O)N(C)c2cnc(Nc3ccc(C(=O)NCCOCCOCCOCCOCCC(=O)N4CCC(Nc5cccc6c5cc(C#CCNc5ccc(S(C)(=O)=O)cc5OC)n6CC(F)(F)F)CC4)cc3OC)nc2N1C1CCCC1 [p53-01, PMV6-PEG4-BI2536]
expansion of mCherry^− fraction [1]: 6.9 fold | crystal violet staining [2]: differential antiproliferative activity | normalized_mCherry_percentage ([3]; 1 nM): 95.51% | normalized_mCherry_percentage ([3]; 10 nM): 97.26% | normalized_mCherry_percentage ([3]; 100 nM): 96.23% | normalized_mCherry_percentage ([3]; 1 uM): 90.97% | activity in competition ([3]; day 8): did not observe any activity | viability at 0.0390625 µM [4, 8]: 94% | viability at 0.078125 µM [4, 9]: 99.7% | viability at 0.625 µM [4, 10]: 85.4% | viability at 1.25 µM ([4]; p53-01 Concentration (µM) 1.25): 61.2% | viability at 2.5 µM ([4]; p53-01 Concentration (µM) 2.5): 41.5% | viability at 5 µM ([4]; p53-01 Concentration (µM) 5): 30% | viability at 10 µM ([4]; p53-01 Concentration (µM) 10): 22.2% | pIC50 (MFE319 cells; 96 h, MFE319, 4 day treatment): 5.90 | p5301_AUC_to_10uM (MFE319 cells; MFE319): 0.3547 | mean_norm (normalized viability) (MFE319 cells; MFE319, Concentration 39.0625): 0.968 | mean_norm (normalized viability) (MFE319 cells; MFE319, Concentration 78.125): 0.9234 | mean_norm (normalized viability) (MFE319 cells; MFE319, Concentration 156.25): 0.9253 | mean_norm (normalized viability) (MFE319 cells; MFE319, Concentration 312.5): 0.9948 | mean_norm (normalized viability) (MFE319 cells; MFE319, Concentration 625): 0.9099 | mean_norm (normalized viability) (MFE319 cells; MFE319, Concentration 1250): 0.6095 | mean_norm (normalized viability) (MFE319 cells; MFE319, Concentration 2500): 0.3193 | mean_norm (normalized viability) (MFE319 cells; MFE319, Concentration 5000): 0.2865 | mean_norm (normalized viability) (MFE319 cells; MFE319, Concentration 10000): 0.2268 | relative viability, replicates (sheet 4E) (MFE319 cells; log Concentration (nM) 0.68867): 1.049 and 0.9314 and 0.9072 and 0.917 | relative viability, replicates (sheet 4E) (MFE319 cells; log Concentration (nM) 0.9897): 0.9806 and 0.996 and 0.993 and 0.8521 | relative viability, replicates (sheet 4E) (MFE319 cells; log Concentration (nM) 1.29073): 0.9742 and 1.022 and 0.9775 and 0.9343 | relative viability, replicates (sheet 4E) (MFE319 cells; log Concentration (nM) 1.59176): 1.009 and 1.026 and 0.9509 and 0.8871 | relative viability, replicates (sheet 4E) (MFE319 cells; log Concentration (nM) 1.89279): 0.9459 and 0.9044 and 0.9452 and 0.8983 | relative viability, replicates (sheet 4E) (MFE319 cells; log Concentration (nM) 2.19382): 0.8852 and 0.9848 and 0.9106 and 0.9206 | relative viability, replicates (sheet 4E) (MFE319 cells; log Concentration (nM) 2.49485): 1.036 and 1.016 and 1.021 and 0.9075 | relative viability, replicates (sheet 4E) (MFE319 cells; log Concentration (nM) 2.79588): 0.9347 and 0.9684 and 0.8932 and 0.8433 | relative viability, replicates (sheet 4E) (MFE319 cells; log Concentration (nM) 3.09691): 0.6355 and 0.6443 and 0.6092 and 0.549 | relative viability, replicates (sheet 4E) (MFE319 cells; log Concentration (nM) 3.39794): 0.3339 and 0.3826 and 0.2998 and 0.2608 | relative viability, replicates (sheet 4E) (MFE319 cells; log Concentration (nM) 3.69897): 0.3202 and 0.3151 and 0.2607 and 0.2498 | viability, replicates (sheet 4G) (MFE319 cells; [8]): 87.9896 and 96.6442 and 88.8312 | viability, replicates (sheet 4G) (MFE319 cells; [9]): 105.101 and 108.114 and 111.169 | viability, replicates (sheet 4G) (MFE319 cells; p53-01 Concentration (µM) 0.15625): 94.6597 and 96.7065 and 100.094 and 89.7143 | viability, replicates (sheet 4G) (MFE319 cells; p53-01 Concentration (µM) 0.3125): 90.6182 and 88.5922 and 96.6649 and 91.0338 | viability, replicates (sheet 4G) (MFE319 cells; [10]): 77.5481 and 91.8338 and 80.5818 | viability, replicates (sheet 4G) (MFE319 cells; p53-01 Concentration (µM) 1.25): 68.0623 and 80.2078 and 68.1143 | viability, replicates (sheet 4G) (MFE319 cells; p53-01 Concentration (µM) 2.5): 46.5039 and 41.4649 and 46.0156 | viability, replicates (sheet 4G) (MFE319 cells; p53-01 Concentration (µM) 5): 29.174 and 32.0623 and 26.6805 | viability, replicates (sheet 4G) (MFE319 cells; p53-01 Concentration (µM) 10): 23.1584 and 24.4468 and 23.2416 | rescue of viability decline by PMV6 (MFE319 cells; p53-01 with PMV6 2.5 μM, CTG 4 days): partially compete the decline in cell viability | PLK1 substrates by western blot [5]: phenocopied BI2536 | PLK1 substrates by western blot [6]: not in parental cells | protein localization [7]: PLK1 nuclear enrichment and colocalization with p53-Y220C
